Results from US11857533B2, “Composition for preventing or treating obesity or lipid-related metabolic disorders” (Nexyon Biotech Co., Ltd., priority 2019, dated 2024).

Columns and labels:
Type in all cases: in vivo, C57BL/6 mice
[1] = system: high-fat-diet-induced obesity mouse model; test: Weight loss effect in high-fat-diet-induced obesity mouse model; conditions: irosustat 10 mg/kg orally once a day, 60% high-fat diet
Protocol: (§1) 8-week-old C57BL/6 mice were fed with a 60% high-fat diet, and a vehicle or irosustat (10 mg/kg) prepared in Preparation Example 1 was administered orally to the mice once a day for a total of 10 days.

[2] = system: high-fat-diet-induced obesity mouse model; test: Fat mass and lean mass by DEXA in high-fat-diet-induced obesity mouse model; conditions: 10 mg/kg orally once a day for 13 weeks, vs vehicle
Protocol: as §1
An experiment was performed under the same conditions as in Experimental Example 1 above, except that the mice were imaged using DEXA (Dual-energy X-ray absorptiometry) after the vehicle or irosustat was administered orally to the mice for 13 weeks.

[3] = system: high-fat-diet-induced obesity mouse model; test: Adipocyte size in abdominal fat tissue, high-fat-diet-induced obesity mouse model; conditions: 10 mg/kg orally once a day for 13 weeks, vs vehicle
Protocol: as §1
An experiment was performed under the same conditions as in Experimental Example 1 above, except that the mice were euthanized after oral administration of irosustat for 13 weeks and abdominal fat tissue was taken and then imaged with a microscope. In addition, the areas of adipocytes in the abdominal fat tissue in the control group and the drug-administered group were measured, and the results are shown in FIG. 5.

[4] = system: high-fat-diet-induced obesity mouse model; test: Hepatic steatosis amelioration, liver tissue microscopy, high-fat-diet-induced obesity mouse model; conditions: 10 mg/kg orally once a day for 13 weeks, vs vehicle
Protocol: as §1
An experiment was performed under the same conditions as in Experimental Example 1 above, except that the mice were euthanized after oral administration of irosustat for 13 weeks and hepatic tissue was taken and then imaged with a microscope.

[5] = system: high-fat-diet-induced obesity mouse model; test: Glucose tolerance test (GTT) in high-fat-diet-induced obesity mouse model; conditions: 10 mg/kg orally for 11 weeks, 16 h fast, glucose 1 g/kg i.p., 0-120 min, vs vehicle
Protocol: as §1
An experiment was performed under the same conditions as in Experimental Example 1 above, except that the mice were fasted for 16 hours after oral administration of irosustat for 11 weeks, and glucose was injected intraperitoneally into the mice at a dose of 1 g/kg body weight. 0 min, 15 min, 30 min, 60 min, 90 min and 120 min after intraperitoneal injection, blood was collected from the tail of each mice and the glucose level in the blood was measured. However, during the glucose tolerance test, a stable environment was provided to the experimental animals. In addition, AUC (area under the glucose-time curve) was measured using the following Equation 1 and the results are shown in FIG. 8. In Equation 1, C0, C15, C30, C60, C90 and C120 are glucose levels measured at 0 min, 15 min, 30 min, 60 min, 90 min and 120 min, respectively. AUC=0.5×(0.5×C0+C15+C30+C60+C90+0.5×C120) [Equation 1]

[6] = system: high-fat-diet-induced obesity mouse model; test: Insulin tolerance test (ITT) in high-fat-diet-induced obesity mouse model; conditions: 10 mg/kg orally for 12 weeks, 2 h fast, insulin 0.8 units/kg i.p., 0-120 min, vs vehicle
Protocol: as §1
An experiment was performed under the same conditions as in Experimental Example 1 above, except that the mice were fasted for 2 hours after oral administration of irosustat for 12 weeks, and then the blood glucose levels of the mice were measured and insulin was injected intraperitoneally into the mice at a dose of 0.8 units/kg body weight. 0 min, 15 min, 30 min, 60 min, 90 min and 120 min after intraperitoneal injection, blood was collected from the tail of each mice and the glucose level in the blood was measured.

[7] = system: high-fat-diet-induced obesity mouse model; test: Blood cholesterol and triglyceride levels in high-fat-diet-induced obesity mouse model; conditions: 10 mg/kg orally once a day for 13 weeks, vs vehicle
Protocol: as §1
An experiment was performed under the same conditions as in Experimental Example 1 above, except that the blood cholesterol and triglyceride levels in the control group and the drug-administered group were measured after oral administration of irosustat for 13 weeks. The results of measurement of the cholesterol and triglyceride levels are shown in FIGS. 11 and 12, respectively.

## NS(=O)(=O)Oc1ccc2c3c(c(=O)oc2c1)CCCCC3 [irosustat, (6-oxo-8,9,10,11-tetrahydro-7H-cyclohepta[c]chromen-3-yl) sulfamate]
[1]; C57BL/6 mice, vehicle control 36.4+/−3.4 g
  body weight: 31.4 ± 5.0 g
[1]; vs vehicle
  decrease of body weight compared to control group: about 14%
[2]
  fat mass: significantly decreased
[3]
  size of adipocytes in abdominal fat tissue: significantly decreased
[4]
  findings of hepatic steatosis caused by the high-fat diet: significantly improved
[5]
  blood glucose level in glucose tolerance test (time course and AUC): significantly decreased
[6]
  blood glucose level in insulin tolerance test (time course and AUC): significantly decreased
[7]
  blood cholesterol level: significantly decreased
  blood triglyceride level: significantly decreased
